{"source": "paper PMC12333015", "about": "“Profiling the Impact of mGlu7/Elfn1 Protein Interactions on the Pharmacology of mGlu7 Allosteric Modulators” (ACS Chemical Neuroscience, 2025)", "tested_on": "pyramidal cell to SST-IN synapses in the prefrontal cortex", "experiment": "Ex vivo whole-cell electrophysiology, eEPSCs recorded from SST-INs in prefrontal cortex slices", "format": "cell-based, mouse", "text": "Shown in Figure A are representative traces of eEPSCs recorded from SST-INs in response to 5-pulse stimulation with baseline in black, illustrating the characteristic facilitating nature of pyramidal cell (PYR) to SST-IN synapses.\nTransgenic mice (both male and female) expressing tdTomato fluorescent protein in SST-INs were used in this study. They were generated by crossing female homozygous SST-Cre (Sst^tm2.1(cre)Zjh/J, Stock #: 013044, Jackson Laboratories) with male homozygous Ai9 mice (B6;Cg-Gt(Rosa)-26Sor^tm9(CAG‑tdTomato)Hze/J, Stock #: 007909, Jackson Laboratories). All animals were group housed with food and water available ad libitum, kept under a 12 h light/dark cycle with lights on from 6:00 AM to 6:00 PM, and were used for experiments during the light phase. All of the experimental procedures were approved by the Vanderbilt University Animal Care and Use committee and followed the guidelines set forth by the Guide for the Care and Use of Laboratory Animals. […] Whole cell recordings were made from visually identified, fluorescence-labeled SST-INs in layer V of PFC slices under the upright microscope. […] Excitatory postsynaptic currents (EPSCs) were recorded from layer V SST-INs at a holding potential of −80 mV and evoked by electrical stimulation (100 μs duration, applied every 15 s) through a concentric bipolar stimulating electrode placed around 100–150 μm from the recorded cell. The holding potential of −80 mV under voltage clamp is closed to the calculated reversal potential of Cl^– and thus the EPSCs recorded in the present studies had minimal GABAA-mediated component. Electrical stimulation applied near the recorded cell in the cortex presumably activates the local neurons preferentially. […] Data were analyzed using Clampfit 10 (Molecular Devices), Excel (Microsoft), and Prism (GraphPad Software), and presented as mean ± SEM. […]"}
{"smiles": "O=C(Nc1ccc(Oc2ccc(Cl)cn2)c(Cl)c1)c1ccccn1", "note": "[VU0422288]", "values": [{"measurement": "effect on eEPSC amplitude", "setting": "10 μM VU0422288 alone, compared to baseline", "value": "no change in eEPSC amplitude"}, {"measurement": "effect on eEPSCs of combination with L-AP4", "setting": "30 μM L-AP4 + 10 μM VU0422288, compared to L-AP4 alone", "value": "further depression of eEPSCs"}]}
